Like-named read-outs stand apart in the source and are kept apart here. Where no end group is shown, it is not given here.
Experiments:
[1] = in vitro; format: cell-based, human; details: human
Experimental: (§1) CAKI2 cells were cultured and adjusted to cell count of about 5×10^3 cells per single well of 96-well plate. The amount of medium at this time was made to be 100 μL per well. Next, the 96-well plate was arranged in a CO2 incubator and incubated for about 1 day (21 hours to 24 hours) under conditions of 37° C. and 5% CO2. Subsequently, peptide-containing test media were respectively prepared for each concentration so that the concentration of each sample peptide targeted for evaluation was 12.5 μM and 25 μM followed by supplying to the wells in which the cells targeted for evaluation were cultured (namely, the wells following the above-mentioned incubation) so that the amount of media was 90 μL per well. The 96-well plate was then returned to CO2 incubator followed by incubating for 48 hours under conditions of 37° C. and 5% CO2. The number of wells (n) at each concentration in each peptide addition test group was set to 3. Thus, the values of the results indicated in the following table are the average values of the results respectively obtained for 3 test wells. Cell viability (%) was determined in the manner described below. […] Following completion of incubation, cell viability (%) was evaluated using a colorimetric method consisting of recovering the cell culture liquid containing the above-mentioned reagent together with measuring absorbance at wavelength of 450 nm based on reduction of tetrazolium salt (value corrected for absorbance at a wavelength of 650 nm: A450 to A650). More specifically, the cell viability (%) of each test cell line was calculated from the measured absorbance as a relative value based on cell viability of 100% for the measured value (measured absorbance) of the comparison test group that underwent incubation for 48 hours as described above in only medium not containing peptide. Antitumor activity was evaluated for Sample 2 in above-mentioned Test Example 1 targeted at multiple types of human-derived cultured tumor cells. […]

[2] = tested on: normal human mammary epithelial cells (MCF-12F); assay: in vitro; format: cell-based; details: each tumor cell line (CAKI2, PC-3, A2058, H2444, A549) versus MCF-12F; result in words
Experimental: as §1

[3] = tested on: human kidney cancer cell line (CAKI2); format: cell-based; details: for Cell Viability (%): human, 48 h
Experimental: The antitumor activity of each sample peptide synthesized in above-mentioned Test Example 1 was evaluated targeted in human-derived cultured tumor cells. More specifically, a human kidney cancer cell line (CAKI2) that is currently commercially available was used for the test tumor cells. CAKI2 cells were cultured and adjusted to cell count of about 5×10^3 cells per single well of 96-well plate. The amount of medium at this time was made to be 100 μL per well. Next, the 96-well plate was arranged in a CO2 incubator and incubated for about 1 day (21 hours to 24 hours) under conditions of 37° C. and 5% CO2. Subsequently, peptide-containing test media were respectively prepared for each concentration so that the concentration of each sample peptide targeted for evaluation was 12.5 μM and 25 μM followed by supplying to the wells in which the cells targeted for evaluation were cultured (namely, the wells following the above-mentioned incubation) so that the amount of media was 90 μL per well. The 96-well plate was then returned to CO2 incubator followed by incubating for 48 hours under conditions of 37° C. and 5% CO2. The number of wells (n) at each concentration in each peptide addition test group was set to 3. Thus, the values of the results indicated in the following table are the average values of the results respectively obtained for 3 test wells. Cell viability (%) was determined in the manner described below. Following completion of incubation for 48 hours as described above, the medium in each well was replaced with 100 μL of fresh medium not containing peptide followed by further adding a reagent for measuring cell proliferation in the form of “Cell Counting Kit-8” (Dojindo Laboratories) containing “water-soluble tetrazolium salt (WST-8)” as a coloring reagent at 10 μL per well. Subsequently, the 96-well plate was again returned to CO2 incubator and incubated for 1.5 hours to 2 hours under conditions of 37° C. and 5% CO2. Following completion of incubation, cell viability (%) was evaluated using a colorimetric method consisting of recovering the cell culture liquid containing the above-mentioned reagent together with measuring absorbance at wavelength of 450 nm based on reduction of tetrazolium salt (value corrected for absorbance at a wavelength of 650 nm: A450 to A650). More specifically, the cell viability (%) of each test cell line was calculated from the measured absorbance as a relative value based on cell viability of 100% for the measured value (measured absorbance) of the comparison test group that underwent incubation for 48 hours as described above in only medium not containing peptide. McCoy's 5A medium (Gibco) containing 2 mM L-glutamine, 3,000 mg/L of glucose, 100 units/mL of penicillin, 100 μg/mL of streptomycin and 10% fetal bovine serum (FBS).

FIGNLALSDLLAGVAYTANLLLKKRTLRKNDRKKR-NH2 [Sample 2]
viability at 48 h, 12.5 μM [1]: 59.6% | viability at 48 h, 25 μM [1]: 13.8% | antitumor activity against tumor cells in comparison with normal cells [2]: more potent antitumor activity | antitumor activity (tumor cell proliferation inhibitory activity) ([3]; CAKI2 cells, result in words, among Samples 1 to 7): superior antitumor activity | Cell Viability (%) ([3]; 12.5 μM): 9.2% | Cell Viability (%) ([3]; 25 μM): 0.4%
